Among the data in PubChem BioAssay (NCI) are TGI and GI50 values, retold here.

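Test compounds were applied to cells in 96-well plates for 48 hours at 5 doses. Abbreviation: GI50, concentration required for 50% inhibition of growth. TGI: concentration producing complete growth inhibition.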

Among the test systems are UACC-62 melanoma; HS 578T breast; NCI/ADR-RES ovarian; MCF7 breast; SF-539 CNS; ACHN renal; MOLT-4 leukemia; NCI-H23 lung; HL-60(TB) leukemia; SR leukemia.
What all share (assay): NCI tumour cell line growth inhibition, 48 h

As to `O=NNc1nc(-c2cccnc2)nc2ccccc12`, the TGI with UACC-62 melanoma, in the experiment with HS 578T breast, with NCI/ADR-RES ovarian, in the experiment on MCF7 breast, in the experiment with SF-539 CNS and in the experiment with ACHN renal was above 100 µM throughout. The TGI in the experiment on MOLT-4 leukemia, in the experiment with NCI-H23 lung and with HL-60(TB) leukemia was above 100 µM throughout.
For the molecule `CN(C)CCOc1ccc2c(c1)C/C(=C/c1ncc([N+](=O)[O-])n1C)C2=O`, the TGI is 4.97 µM in the experiment on UACC-62 melanoma; above 49.6 µM in the experiment on HS 578T breast; 34.1 µM with NCI/ADR-RES ovarian; 7.11 µM with MCF7 breast; 21.2 µM with SF-539 CNS; 4.71 µM in the experiment with ACHN renal. Further, the TGI in the experiment on MOLT-4 leukemia was above 22.6 µM; with NCI-H23 lung, 4.94 µM; in the experiment with HL-60(TB) leukemia, 71.7 µM.
As to `CCc1cc(O)c(Cl)c(C)c1Cl`, the TGI came to 35.1 µM in the experiment on UACC-62 melanoma; 67.7 µM in the experiment with HS 578T breast; 50.1 µM with NCI/ADR-RES ovarian; 61.6 µM in the experiment with MCF7 breast; 34.8 µM in the experiment on SF-539 CNS; 31.5 µM with ACHN renal. In addition, the TGI is 36.9 µM in the experiment on NCI-H23 lung and above 100 µM with HL-60(TB) leukemia.
On to `c1cnc2[nH]cc(-c3csc(-c4cn(CCCCN5CCOCC5)c5ccccc45)n3)c2c1`, for which the GI50 with UACC-62 melanoma is 1.79 µM; in the experiment with HS 578T breast, 1.77 µM; with NCI/ADR-RES ovarian, 2.04 µM; with MCF7 breast, 1.56 µM; in the experiment on SF-539 CNS, 1.71 µM; with MOLT-4 leukemia, 1.82 µM. Also, the GI50 in the experiment with NCI-H23 lung is 2.04 µM; in the experiment with HL-60(TB) leukemia, 1.96 µM. Besides, the TGI was 3.8 µM in the experiment on UACC-62 melanoma; 4.98 µM in the experiment on HS 578T breast; 4.71 µM in the experiment on NCI/ADR-RES ovarian; 3.57 µM in the experiment with MCF7 breast; 3.13 µM with SF-539 CNS; 3.67 µM with MOLT-4 leukemia. Further, the TGI turned out to be 4.49 µM in the experiment on NCI-H23 lung and 3.92 µM with HL-60(TB) leukemia.
In the case of `CCCCn1cnc2c(SC)ncnc21`, the TGI in the experiment on UACC-62 melanoma is above 100 µM; in the experiment on HS 578T breast, above 100 µM; with NCI/ADR-RES ovarian, above 100 µM; in the experiment on MCF7 breast it was above 100 µM; in the experiment on SF-539 CNS it was above 100 µM; in the experiment with SR leukemia, 94.4 µM. For the same molecule, the TGI in the experiment on ACHN renal, with MOLT-4 leukemia and with NCI-H23 lung was above 100 µM throughout.
Take `Clc1nc(Cl)c2ncn(Cc3ccc(COc4cccc(OCc5ccc(Cn6cnc7c(Cl)nc(Cl)nc76)cc5)c4)cc3)c2n1`: the GI50 with UACC-62 melanoma is 34.7 µM; with HS 578T breast, 54.1 µM; in the experiment on NCI/ADR-RES ovarian, 39.5 µM; in the experiment on MCF7 breast, 28.9 µM; with SF-539 CNS it was above 100 µM; in the experiment on ACHN renal it was 45.4 µM. For the same molecule, the GI50 in the experiment with MOLT-4 leukemia was 8.6 µM; in the experiment on NCI-H23 lung it was 71.4 µM; in the experiment with HL-60(TB) leukemia, 13.5 µM. Also, the TGI in the experiment with UACC-62 melanoma, in the experiment on HS 578T breast, in the experiment with NCI/ADR-RES ovarian, in the experiment on MCF7 breast, in the experiment with SF-539 CNS and with ACHN renal was above 100 µM throughout. Further, the TGI was above 100 µM in the experiment on MOLT-4 leukemia, above 100 µM with NCI-H23 lung and 34.3 µM with HL-60(TB) leukemia.
As to `CC12CCC(=O)C=C1CCC1C2C(O)CC2(C)C(c3csc(N)n3)CCC12` (stereo not given), the TGI in the experiment with UACC-62 melanoma, with HS 578T breast, with NCI/ADR-RES ovarian, in the experiment with MCF7 breast, in the experiment on SF-539 CNS and in the experiment on SR leukemia was above 100 µM each time. In addition, the TGI in the experiment with ACHN renal, in the experiment with MOLT-4 leukemia and in the experiment with NCI-H23 lung was above 100 µM throughout.
For `Nc1nc2c(c(=O)[nH]1)CN(c1ccc(S(N)(=O)=O)cc1)CN2`, the TGI in the experiment on UACC-62 melanoma, with HS 578T breast, in the experiment on NCI/ADR-RES ovarian, with MCF7 breast, in the experiment on SR leukemia and in the experiment on ACHN renal was above 100 µM each time. Besides, the TGI with MOLT-4 leukemia was above 100 µM.
In the case of `COc1cc(-c2cn(-c3ccc(Cl)cc3)c(C)c2C(=O)C(F)(F)F)cc(OC)c1OC`, the GI50 in the experiment on UACC-62 melanoma was above 100 µM; in the experiment on HS 578T breast, above 100 µM; in the experiment with NCI/ADR-RES ovarian, above 100 µM; with MCF7 breast it was 24.6 µM; in the experiment on SF-539 CNS, above 100 µM; with SR leukemia, 4.92 µM. The figures for the GI50 in the experiment with ACHN renal, in the experiment with MOLT-4 leukemia and with NCI-H23 lung were above 100 µM, 6.01 µM and 60.5 µM, respectively. Further, the TGI with UACC-62 melanoma, with HS 578T breast, in the experiment on NCI/ADR-RES ovarian, with MCF7 breast, in the experiment on SF-539 CNS and in the experiment on SR leukemia was above 100 µM each time. Moreover, the TGI with ACHN renal, in the experiment with MOLT-4 leukemia and with NCI-H23 lung was above 100 µM each time.
Turning to `CC(=O)OCC1OC(n2ccc(=O)[nH]c2=O)C(OC(C)=O)C1OC(C)=O` (stereo not given), the GI50 in the experiment with UACC-62 melanoma, in the experiment with HS 578T breast, in the experiment with NCI/ADR-RES ovarian, in the experiment on MCF7 breast, in the experiment with SF-539 CNS and in the experiment with ACHN renal was above 100 µM throughout. Also, in the experiment with NCI-H23 lung, the GI50 is above 100 µM. For the same molecule, the TGI with UACC-62 melanoma, in the experiment on HS 578T breast, with NCI/ADR-RES ovarian, with MCF7 breast, in the experiment on SF-539 CNS and in the experiment with ACHN renal was above 100 µM in each case. The same molecule showed a TGI in the experiment with NCI-H23 lung above 100 µM.
In the case of `CN(C)c1ccc2cc(-c3ccccc3F)c(N)nc2c1`, the GI50 is 0.89 µM in the experiment on UACC-62 melanoma; 2.83 µM in the experiment with HS 578T breast; 1.06 µM in the experiment with NCI/ADR-RES ovarian; 0.431 µM in the experiment on MCF7 breast; 2.1 µM in the experiment on SF-539 CNS; 0.491 µM in the experiment on SR leukemia. Moreover, the figures for the GI50 with ACHN renal, in the experiment on NCI-H23 lung and with HL-60(TB) leukemia were 3.8 µM, 2.89 µM and 0.419 µM, respectively. Besides, the TGI with UACC-62 melanoma was 12 µM; with HS 578T breast, 18.5 µM; in the experiment on NCI/ADR-RES ovarian, 12.3 µM; in the experiment with MCF7 breast it was 14.4 µM; in the experiment with SF-539 CNS, 7.99 µM; in the experiment with SR leukemia, 4.99 µM. Moreover, the TGI amounted to 17.3 µM with ACHN renal, 15.7 µM with NCI-H23 lung and 9.36 µM in the experiment with HL-60(TB) leukemia.
